# Paper PMC4890880 (ACS infectious diseases, 2016)
# Where two headings read alike, the source gives them in different places.
# Tests used:
# [1] = tested on: Plasmodium berghei (Pb-Luc) exoerythrocytic-stage parasites; settings: for normalized signal at concentration 10 / normalized signal at concentration 0.000508053 / normalized signal at concentration 0.00152416 / normalized signal at concentration 0.00457247 / normalized signal at concentration 0.0137174 / normalized signal at concentration 0.0411523 / normalized signal at concentration 0.123457 / normalized signal at concentration 0.37037 / normalized signal at concentration 1.11111 / normalized signal at concentration 3.33333: fraction of control; for IC50: read-out: PbLuc_IC50, Broad compounds, dose response; for IC50 / PbLuc_max_inhibition (%): sheet 2nd round; for PbLuc_max_inhibition (%): maximal inhibition in dose response
# [2] = tested on: HepG2-A16-CD81EGFP cells; settings: sheet 2nd round; for IC50: read-out: Tox_IC50, HepG2 cytotoxicity; for Tox_max_inhibition (%): maximal inhibition in dose response
# [3] = first series of dose-response columns
# [4] = second series of dose-response columns
Structure (SMILES),"normalized signal at concentration 10 [1, 3]",normalized signal at concentration 0.000508053 ([1]; first series),normalized signal at concentration 0.00152416 ([1]; first series),normalized signal at concentration 0.00457247 ([1]; first series),normalized signal at concentration 0.0137174 ([1]; first series),normalized signal at concentration 0.0411523 ([1]; first series),normalized signal at concentration 0.123457 ([1]; first series),normalized signal at concentration 0.37037 ([1]; first series),normalized signal at concentration 1.11111 ([1]; first series),normalized signal at concentration 3.33333 ([1]; first series),IC50 [1] [µM],"normalized signal at concentration 10 [1, 4]",normalized signal at concentration 0.000508053 ([1]; second series),normalized signal at concentration 0.00152416 ([1]; second series),normalized signal at concentration 0.00457247 ([1]; second series),normalized signal at concentration 0.0137174 ([1]; second series),normalized signal at concentration 0.0411523 ([1]; second series),normalized signal at concentration 0.123457 ([1]; second series),normalized signal at concentration 0.37037 ([1]; second series),normalized signal at concentration 1.11111 ([1]; second series),other results
C[C@@H]1CN([C@H](C)CO)C(=O)c2cc(N(C)C)ccc2O[C@@H](C)CCCCO[C@@H]1CN(C)S(=O)(=O)c1ccc(F)cc1 [BRD-K12341671-001-01-5],0.50,0.77,1.03,1.06,0.89,0.99,1.04,0.93,0.88,0.70,> 10,0.50,0.88,1.15,0.85,0.84,0.98,0.98,0.92,0.85,normalized signal at concentration 3.33333 ([1]; second series): 0.80; PbLuc_max_inhibition (%) [1]: 50%; IC50 [2]: > 10 µM; Tox_max_inhibition (%) [2]: 5%
C[C@H]1CN([C@@H](C)CO)C(=O)c2cc(C#Cc3ccccc3)cnc2O[C@H]1CN(C)C(=O)c1ccccc1 [BRD-K12503654-001-01-1],0.56,1.00,1.04,1.07,1.02,1.04,0.97,0.92,1.13,0.83,> 10,0.51,1.07,0.85,1.01,0.97,1.21,1.03,1.11,0.90,normalized signal at concentration 3.33333 ([1]; second series): 0.91; PbLuc_max_inhibition (%) [1]: 49%; IC50 [2]: > 10 µM; Tox_max_inhibition (%) [2]: 5.33%
